Test results: patent US4959361A, “Triazolo(4,3-A)(1,4)benzodiazepines and thieno (3,2-F)(1,2,4)triazolo(4,3-A)(1,4)diazepine compounds which have useful activity as platelet activating factor (PAF) antagonists” (Hoffmann-La Roche Inc., priority 1988, dated 1990)
Read-outs that look alike come from different tables or passages of the source.

Tests used:
[1] = molecular target: T1, PAF-binding, dog platelets (Canis lupus familiaris, UniProt A0A8I3NSH0); assay: PAF binding assay (radiolabelled H-PAF, washed dog platelets); conditions: 10 minutes at room temperature, read-out: PAF-binding IC-50
T1 construct: dog platelets; from tissue; host or cells: washed platelets from citrated dog blood
T1 sequence (A0A8I3NSH0 1-343): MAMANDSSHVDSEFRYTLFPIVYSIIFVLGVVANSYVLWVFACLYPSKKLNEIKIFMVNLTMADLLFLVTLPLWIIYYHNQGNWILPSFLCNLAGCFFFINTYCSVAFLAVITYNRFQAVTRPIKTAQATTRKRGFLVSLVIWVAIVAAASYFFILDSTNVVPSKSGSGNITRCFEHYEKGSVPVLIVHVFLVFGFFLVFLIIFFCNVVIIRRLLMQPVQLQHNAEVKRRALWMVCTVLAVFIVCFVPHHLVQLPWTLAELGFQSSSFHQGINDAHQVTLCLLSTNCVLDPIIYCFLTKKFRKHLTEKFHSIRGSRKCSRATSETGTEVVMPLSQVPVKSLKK
Experimental: The binding assay was done in […] polyethylene microcentrifuge tubes (Beckman) containing 50 μl of an oil mixture of 2 parts Siliconol AR200 (Serva): 1 part Silicone Fluid (Arthur H. Thoma). Buffer, standards, or analogs (150 μl total volume) were added to the tubes. Radiolabelled H-PAF (50 μl) was then added to the tubes. The reaction was started by the addition of 50 μl of dog platelets (2×10^7 platelets). The tubes were capped, inverted several times to mix, and incubated for 10 minutes at room temperature. The platelets were separated from the incubation mixture by centrifuging 1 minute in a Beckman Microfuge B centrifuge. The tip of the microfuge tube was cut off, and the platelets were washed out of the tip with 200 μl of 50% methanol (Burdick and Jackson). Aquasol (NEN, 10 ml) was added and the radioactivity in the samples was determined using an LS 8100 Beckman liquid scintillation counter linked to a Techtran tape recorder Data was processed through an in-house computer system. Alternatively, radioactivity was determined using a Searle Mark III liquid scintillation counter linked to a Iso-Data microprocessor.
(b) preparation of platelets
Blood was collected from anesthesized or unanesthesized dogs into 50 ml plastic centrifuge tubes containing 3.8% sodium citrate as the anticoagulant (1 volume of citrate/9 volumes of blood). The red cells were removed by centrifugation for 15 minutes at 600 rpm (100-125 g) at room temperature. An aliquot of the supernatant platelet rich plasma (PRP) was saved for cell counting and the remainder was acidified to pH 6.5 with 0.15M citric acid. The platelet pellet was obtained after a 10 minute centrifugation at 2000 rpm (1000 g) at room temperature. Washed platelets were prepared by resuspending the platelet pellet once with pBS containing 1 mM EDTA, centrifuging as noted, and then resuspending the platelets in 0.1% BSA pBS. An aliquot of the washed platelets was counted. Platelets used for binding assays were diluted to 2×10^7 platelets/assay tube (4×10^8 platelets/ml). platelet countinq was done using a Royco Cell-Crit 921.

[2] = tested on: PAF Induced Bronchoconstriction; assay: PAF induced bronchoconstriction assay, intravenous testing; format: in vivo, guinea pig; conditions: for ED50: Cavia porcellus, iv, 1 min, i.v., 1 minute pretreatment, PAF 1 μg/kg i.v., read-out: Bronchoconstriction ID-50 i.v.; for % inhibition of bronchoconstriction: Table II (*), at 0. mg/kg i.v. (dose digit cut off)
Experimental: Male animals (Hartlet Strain, 400-500 g were anesthetized with urethane (2 g/kg, i.p.). Each animals' trachea was cannulated and the guinea pigs were respirated using a Harvard small animal rodent respirator (3.0 cc stroke volume, 40 breaths per min.). Tracheal pressure was recorded from a cannula inserted in the trachea and connected to a Statham pressure transducer.
The jugular vein was cannulated for administering compounds. Spontaneous breathing was arrested with succinylcholine (1.2 mg/kg, i.v.) administered 2 minutes prior to intravenous injection of platelet activating factor PAF).
For the intravenous testing, the guinea pig is given a 1-minute pretreatment with propranolol at a dose of 0.1 mg/kg intravenously. The test compound is administered with a 1 minute pretreatment prior to intravenous challenge with PAF. The animal is then challenged with a 1 μg/kg intravenous dose of PAF and the change in tracheal pressure is measured.
The change in tracheal pressure is determined by subtracting the steady state baseline achieved after administration of succinylcholine from the peak broncho. constriction seen after challenge with PAF. The mean is calculated for each test compound and compared to the mean of the control animals to give the percent inhibition of bronchoconstriction. The standard error is calculated as the standard error of the mean.

[3] = tested on: PAF Induced Bronchoconstriction; assay: PAF induced bronchoconstriction assay, oral testing; format: in vivo, guinea pig; conditions: Cavia porcellus, po, 2 hr; for ED50: p.o., read-out: Bronchoconstriction ID-50 p.o. 2 hr; for inhibition in vivo at 0.3 mg/kg: at a dose of 0.3 mg/kg p.o.; for inhibition in vivo at 3 mg/kg: Table II (*), 3 mg/kg p.o.
[4] = Table I, triazolothienodiazepines
[5] = Table II, triazolobenzodiazepines

| SMILES | IC50 [1, 4] | ED50 ([2]; Table I) | ED50 ([3]; Table I) | IC50 [1, 5] | also measured |
| --- | --- | --- | --- | --- | --- |
| Cc1nnc2n1-c1sc(C#CCn3c(=O)ccc4ccccc43)cc1C(c1ccccc1Cl)=NC2 | 2 nM | 0.006 mg/kg | 0.016 mg/kg |  |  |
| Cc1nnc2n1-c1sc(C#CCN3C(=O)CCc4ccccc43)cc1C(c1ccccc1Cl)=NC2 | 0.2 nM | 0.004 mg/kg | 0.015 mg/kg |  |  |
| Cc1nnc2n1-c1sc(C#CCN3Cc4cccc5cccc(c45)C3=O)cc1C(c1ccccc1Cl)=NC2 | 3.5 nM | 0.01 mg/kg | 0.009 mg/kg |  |  |
| Cc1nnc2n1-c1sc(C#CCn3c(=O)n(C)c4ccccc43)cc1C(c1ccccc1Cl)=NC2 | 0.3 nM | 0.004 mg/kg | 0.043 mg/kg |  |  |
| Cc1nnc2n1-c1sc(C#CCC34CCCc5cccc(c53)NC4=O)cc1C(c1ccccc1Cl)=NC2 (stereo not drawn) | 0.7 nM | 0.008 mg/kg |  |  | inhibition in vivo at 0.3 mg/kg ([3]; Table I): 24% |
| Cc1nnc2n1-c1sc(C#CCN3C(=O)C4(C)CCCc5cccc3c54)cc1C(c1ccccc1Cl)=NC2 (stereo not drawn) | 12 nM | 0.013 mg/kg | 0.03 mg/kg |  |  |
| Cc1nnc2n1-c1sc(C#CCn3c4ccccc4c4ccccc43)cc1C(c1ccccc1Cl)=NC2 | 120 nM | 0.016 mg/kg | 0.016 mg/kg |  |  |
| Cc1nnc2n1-c1sc(C#CCn3c(=O)c4ccccc4c4ccccc4c3=O)cc1C(c1ccccc1Cl)=NC2 | 51 nM | 0.01 mg/kg | 0.015 mg/kg |  |  |
| Cc1nnc2n1-c1sc(C#CCn3c(=O)c4ccccc4c4ccccc43)cc1C(c1ccccc1Cl)=NC2 | 13 nM | 0.016 mg/kg | 0.012 mg/kg |  |  |
| Cc1nnc2n1-c1sc(C#CCn3c(=O)n(C)c(=O)c4ccccc43)cc1C(c1ccccc1Cl)=NC2 | 0.6 nM | 0.007 mg/kg | 0.017 mg/kg |  |  |
| Cc1nnc2n1-c1sc(C#CCN3C(=O)COc4ccc(Cl)cc43)cc1C(c1ccccc1Cl)=NC2 | < 1 nM | 0.004 mg/kg | 0.049 mg/kg |  |  |
| Cc1nnc2n1-c1sc(C#CCn3c(=O)n(-c4ccccc4)c4ccccc43)cc1C(c1ccccc1Cl)=NC2 | < 1 nM | 0.008 mg/kg | 0.015 mg/kg |  |  |
| Cc1nnc2n1-c1sc(C#Cc3ccccn3)cc1C(c1ccccc1Cl)=NC2 | 250 nM | 0.056 mg/kg |  |  | inhibition in vivo at 0.3 mg/kg ([3]; Table I): 5% |
| Cc1nnc2n1-c1sc(C#CCn3ccc4ccccc4c3=O)cc1C(c1ccccc1Cl)=NC2 | 1 nM | 0.007 mg/kg | 0.029 mg/kg |  |  |
| Cc1nnc2n1-c1sc(C#CCN3C(=O)CCc4cc(Cl)cc(Cl)c43)cc1C(c1ccccc1Cl)=NC2 | < 1 nM | 0.006 mg/kg | 0.021 mg/kg |  |  |
| Cc1nnc2n1-c1sc(C#CCn3c4c(c5ccccc53)CCCC4)cc1C(c1ccccc1Cl)=NC2 | 7 nM | 0.005 mg/kg | 0.006 mg/kg |  |  |
| Cc1nnc2n1-c1ccc(C#CCN3C(=O)c4ccccc4C3=O)cc1C(c1ccccc1Cl)=NC2 |  |  |  | 20 nM | ED50 ([2]; Table II): 0.019 mg/kg; ED50 ([3]; Table II): 1.4 mg/kg |
| Cc1nnc2n1-c1ccc(C#CCN3C(=O)c4ccccc4C3=O)cc1C(c1ccccc1F)=NC2 |  |  |  | 10 nM | ED50 ([2]; Table II): 0.013 mg/kg; ED50 ([3]; Table II): 0.52 mg/kg |
| COC1c2ccccc2C(=O)N1CC#Cc1ccc2c(c1)C(c1ccccc1F)=NCc1nnc(C)n1-2 (stereo not drawn) |  |  |  | 100 nM | % inhibition of bronchoconstriction [2]: 99%; inhibition in vivo at 3 mg/kg [3]: 100% |
| Cc1nnc2n1-c1ccc(C#CCN3C(=O)c4cccc5cccc3c45)cc1C(c1ccccc1F)=NC2 |  |  |  | 20 nM | % inhibition of bronchoconstriction [2]: 99%; inhibition in vivo at 3 mg/kg [3]: 57% |
| Cc1nnc2n1-c1ccc(C#CCCc3ccccc3)cc1C(c1ccccc1F)=NC2 |  |  |  | < 1 nM | ED50 ([2]; Table II): 0.006 mg/kg; ED50 ([3]; Table II): > 0.3 mg/kg |
| Cc1nnc2n1-c1ccc(C#CCN3C(=O)CCc4ccccc43)cc1C(c1ccccc1F)=NC2 |  |  |  | 20 nM | ED50 ([2]; Table II): 0.015 mg/kg; ED50 ([3]; Table II): 0.44 mg/kg |
| CCc1nnc2n1-c1ccc(C#CCN3C(=O)c4ccccc4C3=O)cc1C(c1ccccc1F)=NC2 [2-[3-[1-Ethyl-6-(2-fluorophenyl)-4H-[1,2,4]triazolo[4,3-a][1, 4]benzodiazepin-8-yl]-2-propynyl]-1H-isoindole-1,3(2H)dione semihydrate] |  |  |  | 100 nM | ED50 ([2]; Table II): 0.054 mg/kg; ED50 ([3]; Table II): 1.5 mg/kg |
